Laboratory results taken from ChEMBL document CHEMBL4831493 (Eur J Med Chem, 2021).
pIC50: −log10 of the molar value.

Experiments:
Acetylcholinesterase [1] = target: Acetylcholinesterase (Electrophorus electricus, UniProt O42275); assay: Inhibition of electric eel recombinant AChE preincubated for 1 min in presence of DNTB followed by addition of acetylthiocholine iodide substrate and measured after 20 mins by Ellman's method
[2] = target: Glycogen synthase kinase-3 beta (Homo sapiens, UniProt P49841); assay: Inhibition of human recombinant N-terminal His-tagged GSK3beta expressed in Escherichia coli using RRRPASVPPSPSLS RHS(pS)HQRR as substrate incubated for 30 mins in presence of ATP by Kinase-Glo reagent based luminescence assay
Glycogen synthase kinase-3 beta, sequence (P49841 whole entry): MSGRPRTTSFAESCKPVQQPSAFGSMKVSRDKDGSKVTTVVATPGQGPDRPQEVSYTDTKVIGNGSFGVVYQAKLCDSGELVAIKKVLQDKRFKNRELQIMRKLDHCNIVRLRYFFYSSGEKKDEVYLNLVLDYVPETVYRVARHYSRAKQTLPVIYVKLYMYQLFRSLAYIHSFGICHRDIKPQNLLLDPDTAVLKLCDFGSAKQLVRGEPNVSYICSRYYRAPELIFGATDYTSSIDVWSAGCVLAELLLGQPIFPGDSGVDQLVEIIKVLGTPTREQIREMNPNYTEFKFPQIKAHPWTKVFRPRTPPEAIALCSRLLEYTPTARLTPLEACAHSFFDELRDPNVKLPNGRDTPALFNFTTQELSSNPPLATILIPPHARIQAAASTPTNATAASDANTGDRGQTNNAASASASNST

Acetylcholinesterase [3] = target: Acetylcholinesterase (Homo sapiens, UniProt P22303); assay: Inhibition of human recombinant AChE preincubated for 1 min in presence of DNTB followed by addition of acetylthiocholine iodide substrate and measured after 20 mins by Ellman's method
Acetylcholinesterase (Homo sapiens, UniProt P22303), sequence (P22303 whole entry): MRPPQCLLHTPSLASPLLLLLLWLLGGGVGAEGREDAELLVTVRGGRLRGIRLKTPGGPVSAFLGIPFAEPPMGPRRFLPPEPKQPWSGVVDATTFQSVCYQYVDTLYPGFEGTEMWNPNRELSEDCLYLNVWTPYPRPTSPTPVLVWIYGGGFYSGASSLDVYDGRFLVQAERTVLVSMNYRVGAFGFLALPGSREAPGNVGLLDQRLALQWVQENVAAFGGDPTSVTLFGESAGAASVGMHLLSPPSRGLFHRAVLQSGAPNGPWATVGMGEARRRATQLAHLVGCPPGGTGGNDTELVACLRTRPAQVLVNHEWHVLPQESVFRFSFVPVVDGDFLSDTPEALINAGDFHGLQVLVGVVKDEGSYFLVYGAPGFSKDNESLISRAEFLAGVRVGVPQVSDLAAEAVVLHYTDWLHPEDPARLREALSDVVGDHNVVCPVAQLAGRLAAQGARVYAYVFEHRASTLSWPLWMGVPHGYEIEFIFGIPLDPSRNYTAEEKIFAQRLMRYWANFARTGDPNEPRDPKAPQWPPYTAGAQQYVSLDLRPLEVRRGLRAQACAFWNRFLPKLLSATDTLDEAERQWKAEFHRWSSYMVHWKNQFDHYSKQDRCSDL

Acetylcholinesterase (Electrophorus electricus, UniProt O42275), sequence (O42275 whole entry): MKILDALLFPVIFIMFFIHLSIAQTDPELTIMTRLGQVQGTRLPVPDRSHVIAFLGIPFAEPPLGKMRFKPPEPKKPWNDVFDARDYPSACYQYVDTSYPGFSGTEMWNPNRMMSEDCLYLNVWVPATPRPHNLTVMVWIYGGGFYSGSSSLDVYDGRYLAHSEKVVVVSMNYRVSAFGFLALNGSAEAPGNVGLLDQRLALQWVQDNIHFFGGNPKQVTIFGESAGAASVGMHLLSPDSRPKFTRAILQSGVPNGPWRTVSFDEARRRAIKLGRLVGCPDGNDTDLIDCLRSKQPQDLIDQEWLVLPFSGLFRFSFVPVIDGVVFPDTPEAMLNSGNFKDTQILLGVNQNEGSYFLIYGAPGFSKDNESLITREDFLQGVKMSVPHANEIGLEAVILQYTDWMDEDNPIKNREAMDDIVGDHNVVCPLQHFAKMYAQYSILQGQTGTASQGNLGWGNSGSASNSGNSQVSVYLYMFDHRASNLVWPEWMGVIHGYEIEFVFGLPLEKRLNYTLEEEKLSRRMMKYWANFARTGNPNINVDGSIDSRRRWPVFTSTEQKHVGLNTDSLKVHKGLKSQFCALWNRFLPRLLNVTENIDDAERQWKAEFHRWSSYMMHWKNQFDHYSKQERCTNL

Compound | pIC50 (Acetylcholinesterase [1]) | pIC50 [2] | pIC50 (Acetylcholinesterase [3])
Cc1ccccc1CN1CCC(CNC(=O)c2cncc(NC(=O)c3ccnc(NC(=O)C4CC4)c3)c2)CC1 | 5.45 | 6.80 | 5.39
O=C(Nc1cncc(OCC2CCN(Cc3ccccc3)CC2)c1)c1ccnc2[nH]ccc12 | 8.64 | 6.08 | 8.41
COc1cccc(CN2CCC(CNC(=O)c3cncc(NC(=O)c4ccnc(NC(=O)C5CC5)c4)c3)CC2)c1 | 5.05 | 6.90 | < 5.00
O=C(CC1CCN(Cc2ccccc2F)CC1)Nc1n[nH]c2cc(-c3cccnc3)ccc12 | 6.41 | < 5.00 | 6.16
O=C(Nc1cncc(C(=O)NC2CCN(Cc3cccc(Cl)c3)CC2)c1)c1ccnc(NC(=O)C2CC2)c1 | 6.02 | 7.20 | 5.60
O=C(CC1CCN(Cc2ccc(F)cc2)CC1)Nc1n[nH]c2cc(-c3cccnc3)ccc12 | 6.67 | < 5.00 | 6.29
O=C(Nc1cncc(OCC2CCN(Cc3ccccc3F)CC2)c1)c1ccnc(NC(=O)C2CC2)c1 | 8.00 | 7.11 | 8.33
O=C(NCCC1CCN(Cc2cccc(Cl)c2)CC1)c1cncc(NC(=O)c2ccnc(NC(=O)C3CC3)c2)c1 |  | 6.82 | 
O=C(Nc1cncc(OCC2CCN(Cc3ccccc3Cl)CC2)c1)c1ccnc(NC(=O)C2CC2)c1 | 7.01 | 7.10 | 7.09
O=C(NCC1CCN(Cc2ccc(F)c(F)c2)CC1)c1cncc(NC(=O)c2ccnc(NC(=O)C3CC3)c2)c1 | 5.98 | 6.55 | 5.51
CC(=O)Nc1cc(C(=O)Nc2cccc(OCC3CCN(Cc4ccc(F)cc4)CC3)c2)ccn1 | < 5.00 | < 5.00 | 
O=C(NCC1CCN(Cc2ccccc2F)CC1)c1cncc(NC(=O)c2ccnc(NC(=O)C3CC3)c2)c1 | 5.76 | 6.79 | 5.76
O=C(NCC1CCN(Cc2ccc(F)cc2)CC1)c1cncc(NC(=O)c2ccnc(NC(=O)C3CC3)c2)c1 | 5.94 | 6.61 | 5.52
O=C(NCC1CCN(Cc2ccccc2)CC1)c1n[nH]c2ccc(-c3cccnc3)cc12 | 6.26 | 7.02 | 5.96
O=C(NCC1CCN(Cc2cccc(F)c2)CC1)c1cncc(NC(=O)c2ccnc(NC(=O)C3CC3)c2)c1 | 5.99 | 7.01 | 5.62
